Measurements from PubChem BioAssay (NCI).
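48-hour exposure; five concentrations; linearly interpolated endpoints. TGI: total growth inhibition.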

Columns and labels:
Test in all cases: NCI tumour cell line growth inhibition, 48 h
[1] = system: COLO 205 colon
[2] = system: DMS 114 small cell lung
[3] = system: SF-539 CNS
[4] = system: UACC-62 melanoma
[5] = system: MALME-3M melanoma
[6] = system: TK-10 renal
[7] = system: NCI-H23 lung
[8] = system: SW-620 colon
[9] = system: OVCAR-8 ovarian
[10] = system: U251 CNS
[11] = system: OVCAR-3 ovarian
[12] = system: A549 NSCLC
[13] = system: NCI-H460 lung
[14] = system: HCT-116 colon
[15] = system: SK-MEL-2 melanoma
[16] = system: SK-MEL-5 melanoma
[17] = system: OVCAR-4 ovarian
[18] = system: ACHN renal
[19] = system: M19-MEL melanoma
[20] = system: A498 renal
[21] = system: SNB-78 CNS
[22] = system: OVCAR-5 ovarian
[23] = system: EKVX NSCLC
[24] = system: HOP-62 NSCLC
[25] = system: UACC-257 melanoma
[26] = system: NCI-H226 lung
[27] = system: MOLT-4 leukemia
[28] = system: CCRF-CEM leukemia
[29] = system: SK-OV-3 ovarian
[30] = system: IGROV1 ovarian
[31] = system: CAKI-1 renal
[32] = system: RPMI-8226 leukemia
[33] = system: HCT-15 colon
[34] = system: M14 melanoma
[35] = system: DLD-1 colon
[36] = system: XF 498 CNS
[37] = system: KM20L2 colon
[38] = system: HT29 colon
[39] = system: KM12 colon
[40] = system: HL-60(TB) leukemia
[41] = system: SN12C renal
[42] = system: NCI-H522 lung
[43] = system: LXFL 529 NSCLC
[44] = system: SNB-19 CNS
[45] = system: 786-0 renal
[46] = system: RXF-631 renal
[47] = system: SF-295 CNS
[48] = system: K-562 leukemia
[49] = system: LOX IMVI melanoma
[50] = system: SF-268 CNS
[51] = system: UO-31 renal
[52] = system: SR leukemia
[53] = system: HOP-92 NSCLC
[54] = system: RXF 393 renal
[55] = system: SK-MEL-28 melanoma
[56] = system: SNB-75 CNS
[57] = system: HOP-18 NSCLC
[58] = system: MDA-MB-435
[59] = system: DMS 273 small cell lung
[60] = system: BT-549 breast
[61] = system: MDA-N
[62] = system: HCC-2998 colon
[63] = system: T-47D breast
[64] = system: DU-145 prostate
[65] = system: PC-3 prostate
[66] = system: HS 578T breast
[67] = system: NCI/ADR-RES ovarian
[68] = system: MCF7 breast
[69] = system: MDA-MB-231 breast

COC(=O)[C@]1(C)CCC[C@]2(C)C3CC4OOC3(C=C4C(C)(C)O)CCC21 (some centres not stated)
TGI [1]: > 100 µM
TGI [2]: > 100 µM
TGI [3]: > 100 µM
TGI [4]: > 100 µM
TGI [5]: > 100 µM
TGI [6]: > 100 µM
TGI [7]: > 100 µM
TGI [8]: > 100 µM
TGI [9]: > 100 µM
TGI [10]: > 100 µM
TGI [11]: > 100 µM
TGI [12]: > 100 µM
TGI [13]: > 100 µM
TGI [14]: > 100 µM
TGI [15]: > 100 µM
TGI [16]: > 100 µM
TGI [17]: > 100 µM
TGI [18]: > 100 µM
TGI [19]: > 100 µM
TGI [20]: > 100 µM
TGI [21]: > 100 µM
TGI [22]: > 100 µM
TGI [23]: > 100 µM
TGI [24]: > 100 µM
TGI [25]: > 100 µM
TGI [26]: > 100 µM
TGI [27]: 67.3 µM
TGI [28]: 57.8 µM
TGI [29]: > 100 µM
TGI [30]: > 100 µM
TGI [31]: > 100 µM
TGI [32]: 37.3 µM
TGI [33]: > 100 µM
TGI [34]: > 100 µM
TGI [35]: > 100 µM
TGI [36]: 46.7 µM
TGI [37]: > 100 µM
TGI [38]: 56.9 µM
TGI [39]: > 100 µM
TGI [40]: 32 µM
TGI [41]: > 100 µM
TGI [42]: 47.3 µM
TGI [43]: 65.6 µM
TGI [44]: > 100 µM
TGI [45]: > 100 µM
TGI [46]: > 100 µM
TGI [47]: > 100 µM
TGI [48]: 64.3 µM
TGI [49]: > 100 µM
TGI [50]: > 100 µM

O=C1C(c2ccccc2)=[N+]([O-])c2ccc(Cl)cc21
TGI [51]: > 100 µM
TGI [1]: 28.9 µM
TGI [2]: 25.6 µM
TGI [3]: 38.5 µM
TGI [4]: 35 µM
TGI [5]: 61.8 µM
TGI [6]: 77.9 µM
TGI [7]: > 100 µM
TGI [8]: 93.3 µM
TGI [52]: > 100 µM
TGI [9]: 30.5 µM
TGI [10]: 65.1 µM
TGI [11]: 59.9 µM
TGI [12]: > 100 µM
TGI [53]: 0.096 µM
TGI [13]: > 100 µM
TGI [54]: 29.1 µM
TGI [14]: 34.7 µM
TGI [55]: 48.8 µM
TGI [15]: > 100 µM
TGI [16]: 35.2 µM
TGI [56]: > 100 µM
TGI [18]: 56.7 µM
TGI [19]: 42.1 µM
TGI [20]: > 100 µM
TGI [22]: 61.5 µM
TGI [23]: 47.3 µM
TGI [24]: > 100 µM
TGI [25]: 46.8 µM
TGI [26]: 49.9 µM
TGI [27]: 81.6 µM
TGI [28]: > 100 µM
TGI [29]: > 100 µM
TGI [30]: 57 µM
TGI [32]: > 100 µM
TGI [33]: 64.2 µM
TGI [34]: > 100 µM
TGI [35]: 51.3 µM
TGI [36]: 35.8 µM
TGI [37]: > 100 µM
TGI [57]: > 100 µM
TGI [38]: 56.1 µM
TGI [39]: > 100 µM
TGI [40]: 38.5 µM
TGI [41]: 67.4 µM
TGI [42]: 31 µM
TGI [43]: 34.9 µM
TGI [44]: > 100 µM
TGI [45]: > 100 µM
TGI [46]: 86.2 µM
TGI [47]: > 100 µM
TGI [48]: > 100 µM
TGI [49]: 32.7 µM
TGI [50]: 62.4 µM

CN1CCN(Cc2nc3cccc4c3c([n+]2[O-])-c2ccccc2-4)CC1
TGI [51]: 66.4 µM
TGI [58]: 34 µM
TGI [1]: > 59.7 µM
TGI [2]: > 100 µM
TGI [3]: > 88 µM
TGI [4]: > 56.4 µM
TGI [5]: > 50.2 µM
TGI [59]: > 100 µM
TGI [6]: > 100 µM
TGI [7]: > 61.7 µM
TGI [60]: > 100 µM
TGI [8]: > 100 µM
TGI [52]: 31.8 µM
TGI [9]: 37.3 µM
TGI [61]: > 100 µM
TGI [10]: > 64 µM
TGI [62]: > 100 µM
TGI [63]: 76.9 µM
TGI [11]: > 100 µM
TGI [64]: 32.1 µM
TGI [12]: > 51.3 µM
TGI [53]: > 73.7 µM
TGI [13]: > 100 µM
TGI [54]: 25.9 µM
TGI [14]: > 100 µM
TGI [65]: 48.6 µM
TGI [55]: > 62.6 µM
TGI [15]: > 54.3 µM
TGI [66]: 97.1 µM
TGI [16]: 49.9 µM
TGI [56]: 66.6 µM
TGI [17]: > 84.4 µM
TGI [18]: > 68.7 µM
TGI [19]: > 100 µM
TGI [20]: > 53.1 µM
TGI [21]: > 100 µM
TGI [22]: > 100 µM
TGI [23]: > 100 µM
TGI [24]: > 100 µM
TGI [25]: > 64.1 µM
TGI [26]: > 68.1 µM
TGI [27]: > 69.4 µM
TGI [28]: > 82.8 µM
TGI [29]: > 100 µM
TGI [30]: > 84.2 µM
TGI [31]: 96.9 µM
TGI [32]: > 74.4 µM
TGI [33]: > 100 µM
TGI [34]: > 61.1 µM
TGI [67]: 48.3 µM
TGI [35]: > 100 µM
TGI [37]: > 100 µM
TGI [57]: > 100 µM
TGI [38]: > 61.1 µM
TGI [39]: > 66 µM
TGI [40]: > 100 µM
TGI [68]: 84.9 µM
TGI [41]: > 100 µM
TGI [42]: > 48.5 µM
TGI [43]: > 100 µM
TGI [44]: > 100 µM
TGI [45]: > 100 µM
TGI [46]: > 100 µM
TGI [47]: > 100 µM
TGI [69]: 44.3 µM
TGI [48]: > 100 µM
TGI [49]: > 51.5 µM
TGI [50]: > 66.5 µM
